Measured values: patent US9023837B2, “Androgen induced oxidative stress inhibitors” (Colby Pharmaceutical Company, priority 2010, dated 2015)
“And” between values parts separate entries of the source, which are not always exact repeats. Identical values can stand only once. “Also recorded” adds a separate entry of the source.

Experiments:
AR-JunD immunocomplex = AR-JunD immunocomplex (Homo sapiens, UniProt P10275, T878A); settings: IP:JunD/WB:AR, 1 nM R1881, 72 h, normalized to β-actin
Procedure: For whole cell lysates, LNCaP cells were lysed using modified RIPA buffer containing complete protease inhibitors (Roche Applied Sciences, Indianapolis, Ind.). Nuclear and cytoplasmic fractions were prepared and checked for purity using NE-PER Nuclear and Cytoplasmic extraction reagents (Thermo Scientific, Pierce Biotechnology, Rockford, Ill.) following manufacturer-supplied protocols. For immunoprecipitation, lysates were pre-cleared by incubation with 50% Protein A-agarose slurry (Pierce, Rockford, Ill.). Six g of AR antibody and 500 μl pre-cleared lysate (500 μg total protein) were mixed and rocked overnight at 4° C. The immunocomplex was captured with 100 μl of 50% protein A-agarose slurry, then analyzed by western blotting using JunD antibody. The same immunoprecipitation procedure was repeated for capturing the immunocomplex using JunD antibody and western blotting using AR antibody. Proper controls with IgG and protein A-agarose were run in parallel.
To specifically investigate the effect of androgen, LNCaP cell lysates were prepared after incubation with 1 nM R1881 for 72 h and analyzed for co-immunoprecipitation of AR and JunD.

SSAT mRNA = SSAT mRNA by qRT-PCR in LNCaP cells; format: cell-based, human
Procedure: Quantitative RT-PCR analysis of SSAT mRNA levels are performed.
The effect of AR activation by androgen on transcriptional activity of full length SSAT promoter and the necessity of JunD for such effect was studied in LNCaP cells stably transfected with either junD silenced (siJunD) or control vector that were then transiently transfected with a full length SSAT promoter-firefly luciferase reporter vector (FLSSAT-luc) followed by androgen treatment (FIGS. 4A,B). Androgen treatment (1 nM R1881) caused a significant>16-fold increase in SSAT promoter activity in vector control LNCaP cells (Control) compared to corresponding untreated cells (FIG. 4A, P=0.03). […] There is an androgen-induced increase in SSAT mRNA (˜10-fold) in siJunD cells, but this increase is much less than that observed in vector control cells (˜25-fold).

SSAT promoter = SSAT promoter luciferase reporter in LNCaP cells; format: cell-based, human; settings: 1 nM R1881, 72 h
Procedure: The full length (FL) SSAT promoter sequence, kindly provided by Dr. Robert Casero (Johns Hopkins University, Baltimore, Md.), was amplified and cloned into pGL4-basic vector (Promega) with a firefly luciferase reporter gene. This vector, pGL4-SSAT-luc, was transiently transfected into our published (20) JunD-silenced (siJunD) and vector control LNCaP cell lines. Briefly, 5×10^5 siJunD or vector control LNCaP cells were seeded, then transfected one day later with […] pGL4-SSAT-luc DNA construct using Lipofectamine2000 (Invitrogen). After transfection, cells were treated with 1 nM R1881 or left untreated for 72 h, then lysed. Luciferase activity was measured in cell lysates by a luciferase assay system kit (Promega) following the manufacturer-supplied protocol.
The effect of AR activation by androgen on transcriptional activity of full length SSAT promoter and the necessity of JunD for such effect was studied in LNCaP cells stably transfected with either junD silenced (siJunD) or control vector that were then transiently transfected with a full length SSAT promoter-firefly luciferase reporter vector (FLSSAT-luc) followed by androgen treatment (FIGS. 4A,B). Androgen treatment (1 nM R1881) caused a significant>16-fold increase in SSAT promoter activity in vector control LNCaP cells (Control) compared to corresponding untreated cells (FIG. 4A, P=0.03). […]

JunD-AR complex = JunD-AR complex (Homo sapiens, UniProt P10275); settings: Hep3B, 2 nM R1881, 48 h
Procedure: The two vectors were co-transfected into Hep3B liver carcinoma cells with no AR background.
5×10^5 Hep3B cells were seeded, then one day later co-transfected with 3 g each of Gluc1-AR and JunD-Gluc2 constructs, or transfected with Gluc1-AR or JunD-Gluc2 alone as negative controls using Lipofectamine 2000 reagent (Invitrogen), following the manufacturer-supplied protocol. Two to three hours after transfection, cells were washed and refed DMEM without serum and treated with 2 nM R1881 for 48 h prior to collecting cell lysates. Corresponding untreated cells were used as negative controls.
Gaussia luciferase activity was measured in 25 μl of Hep3B cell lysates from R1881-treated or untreated control cells using a Gaussia luciferase assay kit from New England Biolabs (Ipswich, Mass.), following the manufacturer-supplied protocol.

[1] = biological target: T1, Androgen Receptor Ligand Binding Domain (AR-LBD) (Rattus norvegicus, UniProt P15207); assay: fluorescence polarization assay for AR-LBD binding; settings: bicalutamide positive control
T1 sequence (P15207 651-882 limits assumed): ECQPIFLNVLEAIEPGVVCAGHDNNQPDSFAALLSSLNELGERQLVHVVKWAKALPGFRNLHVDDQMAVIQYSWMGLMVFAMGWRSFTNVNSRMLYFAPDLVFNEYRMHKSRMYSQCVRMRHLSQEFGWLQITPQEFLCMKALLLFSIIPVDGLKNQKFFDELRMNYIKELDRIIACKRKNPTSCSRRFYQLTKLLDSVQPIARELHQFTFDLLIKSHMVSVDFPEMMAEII
Text: Binding of bicalutamide with AR-LBD was used as a positive control.
Bicalutamide is used as a positive control.

LNCaP cells [2] = assay: DCF dye oxidation assay, ROS in LNCaP cells; format: cell-based, human
Text: Described herein are tests for the effect of these three compounds on the androgen-induced ROS production in androgen-dependent LNCaP cells using the DCF dye oxidation assay (see the complete proposal). All data were normalized to the DCF dye fluorescence of control untreated LNCaP cells and expressed as percent of control.
(§1) Culture conditions for LNCaP androgen response studies included use of cells passage 40-90, hormone depleted media containing 4% charcoal-stripped FBS plus 1% non-stripped FBS (F1C4), and synthetic androgen R1881 (methyltrienolone; NEN, Boston, Mass.) at 1 nM for maximal induction of JunD and ROS as described before (17,19,20). For AR-JunD interaction studies in AR-transfected Hep3B cells, R1881 was used at 2 nM in F1C4 medium to maximally induce the AR.
(§2) Graded concentrations of each of the 8-10 designed peptides identified herein are further tested for their ability to inhibit growth of androgen-dependent LNCaP and LAPC-4 cells using a DNA fluorescence assay and androgen-induced ROS using DCFH dye oxidation assay.

LNCaP cells [3] = assay: growth inhibition of LNCaP cells; format: cell-based, human; design: concentration range of cell growth inhibition: unit not given here; settings: presence and absence of R1881
Procedure: as §1, §2

human CaP cells = assay: androgen-induced ROS production in human CaP cells; format: cell-based; settings: pretreatment
Text: (§3) Described herein are molecules, such as for example, N,N′-butadienyl-butanediamine inhibitor of APAO or one of its pro-drugs or analogs, as shown in the figures disclosed herein in this application. […] SSAT promoter sequence, however, contains no AR-binding element (ARE).

[4] = tested on: TRansgenic Adenocarcinoma in Mouse Prostate (TRAMP) animals; assay: TRAMP mouse model of prostate cancer; format: in vivo
Text: as §3

Sequence of JunD-AR complex (P10275 whole entry, the tested form may be a part): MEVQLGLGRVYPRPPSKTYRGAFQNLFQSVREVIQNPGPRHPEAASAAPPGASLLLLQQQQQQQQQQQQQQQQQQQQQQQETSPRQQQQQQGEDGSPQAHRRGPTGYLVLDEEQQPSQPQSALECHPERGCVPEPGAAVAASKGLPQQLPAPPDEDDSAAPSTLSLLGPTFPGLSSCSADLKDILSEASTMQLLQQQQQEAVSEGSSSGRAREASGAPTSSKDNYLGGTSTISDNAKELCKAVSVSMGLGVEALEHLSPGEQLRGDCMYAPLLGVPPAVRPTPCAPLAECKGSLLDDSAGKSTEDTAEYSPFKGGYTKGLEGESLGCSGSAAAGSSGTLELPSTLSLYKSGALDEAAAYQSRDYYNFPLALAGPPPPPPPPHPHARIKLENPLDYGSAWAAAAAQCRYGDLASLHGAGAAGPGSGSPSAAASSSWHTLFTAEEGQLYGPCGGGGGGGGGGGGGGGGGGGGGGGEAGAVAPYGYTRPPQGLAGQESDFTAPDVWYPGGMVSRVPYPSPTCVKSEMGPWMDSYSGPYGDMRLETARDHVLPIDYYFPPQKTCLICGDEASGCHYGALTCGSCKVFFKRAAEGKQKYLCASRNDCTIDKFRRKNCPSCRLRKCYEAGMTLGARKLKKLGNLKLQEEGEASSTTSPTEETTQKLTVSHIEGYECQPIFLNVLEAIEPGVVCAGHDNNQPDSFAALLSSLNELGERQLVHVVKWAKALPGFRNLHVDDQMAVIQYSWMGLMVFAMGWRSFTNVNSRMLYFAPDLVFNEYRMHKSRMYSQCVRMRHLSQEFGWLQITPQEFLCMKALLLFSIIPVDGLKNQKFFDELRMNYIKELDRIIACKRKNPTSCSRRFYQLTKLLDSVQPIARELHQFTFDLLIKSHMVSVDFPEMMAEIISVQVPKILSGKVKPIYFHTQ
Sequence of JunD-AR complex (P17535 whole entry partner, the tested form may be a part): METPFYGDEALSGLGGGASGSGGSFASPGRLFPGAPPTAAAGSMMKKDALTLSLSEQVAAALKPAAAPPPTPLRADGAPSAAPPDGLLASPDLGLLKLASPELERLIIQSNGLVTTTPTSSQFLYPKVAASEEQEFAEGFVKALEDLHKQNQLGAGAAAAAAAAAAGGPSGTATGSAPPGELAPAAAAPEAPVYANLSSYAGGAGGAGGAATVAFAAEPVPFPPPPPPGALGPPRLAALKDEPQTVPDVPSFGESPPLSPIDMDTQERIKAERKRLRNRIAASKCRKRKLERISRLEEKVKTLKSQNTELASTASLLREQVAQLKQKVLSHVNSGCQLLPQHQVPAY
Sequence of AR-JunD immunocomplex (P10275 whole entry T878A): as the sequence (P10275 whole entry, the tested form may be a part) above, with T878A counted along it
Sequence of AR-JunD immunocomplex (P17535 whole entry partner): as the sequence (P17535 whole entry partner, the tested form may be a part) above

## C[C@]1(O)CC[C@H]2[C@@H]3CCC4=CC(=O)CCC4=C3C=C[C@@]21C [R1881, methyltrienolone]
AR-JunD immunocomplex
  increase of AR-JunD immunocomplex in nuclear fraction: approximately 3 fold
SSAT mRNA; JunD silenced (siJunD) LNCaP cells
  increase in SSAT mRNA (treated/untreated): ~10 fold
SSAT mRNA; vector control LNCaP cells
  increase in SSAT mRNA (treated/untreated): ~25 fold and > 25 fold
SSAT promoter; siJunD LNCaP
  increase in SSAT promoter activity: small increase
SSAT promoter; vector control LNCaP
  increase in SSAT promoter activity: > 16 fold
JunD-AR complex
  increase in reconstituted Gaussia luciferase activity versus untreated cells: ~10 fold and > 5 fold

## NN(CC(=O)O)CC(=O)O
[1]
  AR-LBD binding / anti-androgenic properties: no AR-LBD binding property; also recorded: no anti-androgenic properties
LNCaP cells [2]; LNCaP without R1881
  reduction of ROS levels in cells not treated with R1881: weak activity in reducing ROS levels
LNCaP cells [3]
  concentration of growth inhibition: sub-micromolar

## COC(=O)CN(N)CC(=O)OC [dimethyl 2,2′-(hydrazine-1,1-diyl)diacetate]
[1]
  AR-LBD binding / anti-androgenic properties: interaction with the AR-LBD that is comparable with that of bicalutamide
LNCaP cells [2]; LNCaP with or without R1881
  effect on ROS levels under any condition: no effect on the ROS levels
other
  melting point: 166 °C
LNCaP cells [3]
  concentration range of cell growth inhibition: 1-10

## O=C(O)CN(CC(=O)O)N1C(=O)c2ccccc2C1=O [2,2′-(1,3-dioxoisoindolin-2-ylazanediyl)diacetic acid]
[1]
  AR-LBD binding / anti-androgenic properties: no AR-LBD binding property; also recorded: no anti-androgenic properties
LNCaP cells [3]
  concentration of growth inhibition: sub-micromolar

## C=C=CCNCCCCNCC=C=C [N,N′-butadienyl-butanediamine]
Human CaP cells
  androgen-induced ROS production: completely blocks
[4]
  CaP progression: significantly prevents
  oxidative stress in the prostate: markedly reduces
